Results on 20 molecules are retold here after patent US20230174485A1, “LIPOXYGENASE INHIBITORS” (SRI International, priority 2020, published 2023).

SMILES strings stand for the structures. “And” between values parts separate entries of the source, which are not always exact repeats. Equal values may be shown once. Read-outs that look alike come from different tables or passages of the source.

Format in all cases: biochemical
Assay [1] concerns the target T1, recombinant 12-LOX enzyme (Homo sapiens, UniProt P18054).
T1 sequence (P18054 1-663): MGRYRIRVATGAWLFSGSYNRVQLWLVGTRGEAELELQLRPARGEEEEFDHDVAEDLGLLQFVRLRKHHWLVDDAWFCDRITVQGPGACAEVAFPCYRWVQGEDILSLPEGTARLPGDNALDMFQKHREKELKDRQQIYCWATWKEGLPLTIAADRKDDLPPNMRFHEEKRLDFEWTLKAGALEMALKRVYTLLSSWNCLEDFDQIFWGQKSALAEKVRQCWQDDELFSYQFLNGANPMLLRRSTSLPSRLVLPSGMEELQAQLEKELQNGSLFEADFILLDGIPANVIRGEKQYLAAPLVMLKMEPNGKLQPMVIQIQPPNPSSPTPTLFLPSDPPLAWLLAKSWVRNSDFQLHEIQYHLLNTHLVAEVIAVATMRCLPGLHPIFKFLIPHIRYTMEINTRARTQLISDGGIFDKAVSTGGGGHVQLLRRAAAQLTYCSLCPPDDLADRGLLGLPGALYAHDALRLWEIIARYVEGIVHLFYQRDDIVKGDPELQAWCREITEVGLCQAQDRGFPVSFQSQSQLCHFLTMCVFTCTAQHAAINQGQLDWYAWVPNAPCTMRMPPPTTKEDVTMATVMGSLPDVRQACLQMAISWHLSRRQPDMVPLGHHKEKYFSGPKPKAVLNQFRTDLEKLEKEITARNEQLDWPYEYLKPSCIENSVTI
The assay is described as follows: 12-LOX fluorescent assay. The conditions noted are these: several values in one cell = repeat determinations. Here is the method:
(§1) 12-LOX/15-LOX Fluorescent Assay
(§2) The enzyme assay (100 ul) contained 50 mM Tris, pH 7.5, 0.05% Tween-20, 20 μM AA/LA, 1 μM DHR123, and 100 nM recombinant 12-LOX enzyme/50 nM recombinant 15-LOX enzyme. Inhibitors (dissolved in DMSO) were plated at 1 μL into 96-well assay microplates followed by a 40 μL addition of a solution containing 12-LOX/15-LOX enzyme. Enzyme was pre-incubated with compounds for 15 mins. The assay was initiated by the addition of a 40 μL substrate solution containing AA/LA, and 20 μL addition of a solution containing DHR123. Enzymatic reaction proceeded for 30 min with kinetic reading at 500 nm excitation & 536 nm emission in SpectraMax Paradigm (MolecularDevice). Percent inhibition was calculated for each compound dose for IC50 curve fitting using 4 Parameter Logistic Model or Sigmoidal Dose-Response Model.

The target of assay [2] is T2, recombinant 15-LOX enzyme (Homo sapiens, UniProt P16050).
T2 sequence (P16050 1-662): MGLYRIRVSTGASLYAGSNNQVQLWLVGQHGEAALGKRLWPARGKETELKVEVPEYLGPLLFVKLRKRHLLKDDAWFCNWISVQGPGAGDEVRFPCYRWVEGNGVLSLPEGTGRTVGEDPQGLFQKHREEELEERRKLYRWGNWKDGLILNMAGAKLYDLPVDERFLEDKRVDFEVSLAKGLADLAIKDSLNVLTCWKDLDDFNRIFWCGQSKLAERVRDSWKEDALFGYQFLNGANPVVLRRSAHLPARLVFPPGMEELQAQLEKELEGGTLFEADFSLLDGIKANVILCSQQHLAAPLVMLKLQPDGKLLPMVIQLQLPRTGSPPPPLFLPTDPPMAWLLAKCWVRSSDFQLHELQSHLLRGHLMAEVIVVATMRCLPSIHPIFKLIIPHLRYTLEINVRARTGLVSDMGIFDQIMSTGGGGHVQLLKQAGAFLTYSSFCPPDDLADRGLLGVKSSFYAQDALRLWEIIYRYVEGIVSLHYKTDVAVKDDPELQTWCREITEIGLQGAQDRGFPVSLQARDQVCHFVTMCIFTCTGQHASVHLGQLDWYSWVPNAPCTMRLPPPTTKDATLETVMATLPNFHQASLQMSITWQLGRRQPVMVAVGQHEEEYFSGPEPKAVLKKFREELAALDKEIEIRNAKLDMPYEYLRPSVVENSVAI
The assay is described as follows: 15-LOX fluorescent assay. The settings on record: several values in one cell = repeat determinations. The protocol: as §1, §2

A further assay deals with T3, recombinant 5-LOX (Homo sapiens, UniProt P09917).
T3 sequence (P09917 1-674): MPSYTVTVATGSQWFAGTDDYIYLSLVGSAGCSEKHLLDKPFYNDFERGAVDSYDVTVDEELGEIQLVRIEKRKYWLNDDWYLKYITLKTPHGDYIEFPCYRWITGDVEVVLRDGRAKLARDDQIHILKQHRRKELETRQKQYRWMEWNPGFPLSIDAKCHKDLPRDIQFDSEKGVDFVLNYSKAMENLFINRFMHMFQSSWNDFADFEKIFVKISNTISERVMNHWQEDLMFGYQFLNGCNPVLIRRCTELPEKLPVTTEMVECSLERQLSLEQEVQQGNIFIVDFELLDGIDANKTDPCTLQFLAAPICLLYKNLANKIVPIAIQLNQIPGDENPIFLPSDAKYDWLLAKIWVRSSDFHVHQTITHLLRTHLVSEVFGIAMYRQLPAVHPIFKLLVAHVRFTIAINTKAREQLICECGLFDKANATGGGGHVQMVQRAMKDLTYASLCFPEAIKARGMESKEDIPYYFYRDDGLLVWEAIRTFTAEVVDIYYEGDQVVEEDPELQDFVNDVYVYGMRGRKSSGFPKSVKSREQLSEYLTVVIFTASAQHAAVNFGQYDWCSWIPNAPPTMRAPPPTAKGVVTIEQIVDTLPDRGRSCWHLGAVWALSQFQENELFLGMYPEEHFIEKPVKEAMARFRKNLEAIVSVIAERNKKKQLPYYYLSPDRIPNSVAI
Put plainly: 5-LOX fluorescent assay. The settings on record: several values in one cell = repeat determinations; read-out: IC50 (μM) values for in vitro lipoxygenase inhibition, 5-LOX. Here is the method: 5-LOX FI assay Fluorescent Assay
The enzyme assay (100 μL) contained 50 mM Tris, pH 7.5, 0.1 mM EDTA, 0.3 mM CaCl2, 20 μM AA, 100 μM ATP, 1 μM DHR123, and recombinant 5-LOX cell lysate (0.5 μL/100 μL). Inhibitors (dissolved in DMSO) were plated at 1 μL into 96-well assay microplates followed by a 40 μL addition of a solution containing 5-LOX enzyme. Enzyme was pre-incubated with compounds for 15 mins. The assay was initiated by the addition of a 40 μL substrate solution containing AA and ATP, and 20 μL addition of a solution containing DHR123. Enzymatic reaction proceeded for 30 min with kinetic reading at 500 nm excitation & 536 nm emission in SpectraMax Paradigm (MolecularDevice). Percent inhibition was calculated for each compound dose for IC50 curve fitting using 4 Parameter Logistic Model or Sigmoidal Dose-Response Model.

The mark [3] stands for this setting: read-out: IC50 (μM) values for in vitro lipoxygenase inhibition, 12-LOX.
[4] abbreviates: read-out: IC50 (μM) values for in vitro lipoxygenase inhibition, 15-LOX.
Where [5] appears, read: IC50 (μM) values for in vitro lipoxygenase inhibition, 15-LOX.

As for `COc1cccc2c1[nH]c1ccc(F)cc12` [SS20308-0002-01, 6-fluoro-1-methoxy-9H-carbazole], the IC50 in assay [1] (setting [3]) came to 8.04 µM; in assay [2] (setting [4]) it was 4.33 µM; on recombinant 5-LOX it was 20.8 µM.

For `CN(C)CCOc1c(O)ccc2c1[nH]c1ccc(F)cc12` [SS20308-0004-01, 1-(2-(dimethylamino)ethoxy)-6-fluoro-9H-carbazol-2-ol], the IC50 was 3.19 µM in assay [1] (setting [3]) and 2.55 µM in assay [2] (setting [4]).

In the case of `COc1ccc2c([nH]c3ccc(F)cc32)c1OCCN(C)C` [SS20308-0007-01, 2-(6-fluoro-2-methoxy-9H-carbazol-1-yloxy)-N,N-dimethylethanamine], the IC50 in assay [1] (setting [3]) was 22 µM; in assay [2] (setting [5]), 8.64 µM; at recombinant 5-LOX, 32.2 µM.

As to `Cc1cc(OCCn2cncn2)c2[nH]c3ccccc3c2c1` [SS20308-0017-01, 1-(2-(1H-1,2,4-triazol-1-yl)ethoxy)-3-methyl-9H-carbazole], the IC50 in assay [1] (setting [3]) stood at 2.85 µM; in assay [2] (setting [4]), 3.49 µM; at recombinant 5-LOX, 6.06 µM.

As to `c1ccc(-c2cc3c([nH]c4ccccc43)c(OCCn3cncn3)n2)cc1` [SS20308-0018-01], the IC50 in assay [1] (setting [3]) amounted to 4.07 µM; in assay [2] (setting [5]) it was 1.39 µM; on recombinant 5-LOX, 47 µM.

For `CN(C)CCOc1c(Nc2ccccc2)ccc2c1[nH]c1ccc(F)cc12` [SS20308-0032-01, 1-(2-(dimethylamino)ethoxy)-6-fluoro-N-phenyl-9H-carbazol-2-amine], the IC50 amounted to 0.21 µM in assay [1] (setting [3]), 15.9 µM in assay [2] (setting [4]) and 0.27 µM at recombinant 5-LOX.

As to `CN(C)CCOc1c(NCc2ccccc2)ccc2c1[nH]c1ccc(F)cc12` [SS20308-0036-01, N-benzyl-1-(2-(dimethylamino)ethoxy)-6-fluoro-9H-carbazol-2-amine], the IC50 in assay [1] (setting [3]) came to 0.4 µM; in assay [2] (setting [4]), 0.8 µM; on recombinant 5-LOX, 0.35 µM.

Turning to `CN(C)CCOc1cccc2c1-c1[nH]c3ccccc3c1CS2` [SS20308-0046-01, 2-(6,11-dihydrothiochromeno[4,3-b]indol-1-yloxy)-N,N-dimethylethanamine], the figures for the 50% inhibitory concentration (IC50) (in assay [1] (setting [3]); in assay [2] (setting [4]); at recombinant 5-LOX) were 0.62 µM, 0.97 µM and 0.63 µM, respectively.

Regarding `CN(C)CCOc1c(NCc2ccccc2)ccc2c1[nH]c1ncccc12` [SS20308-0047-01, N-benzyl-8-(2-(dimethylamino)ethoxy)-9H-pyrido[2,3-b]indol-7-amine], the IC50 in assay [1] (setting [3]) was 0.36 µM and 0.49 µM; in assay [2] (setting [5]), 1.13 µM and 1.93 µM; on recombinant 5-LOX it was 0.36 µM and 0.82 µM.

In the case of `CN(C)CCOc1cc(Oc2ccccc2)cc2c1[nH]c1ccc(F)cc12` [SS20308-0054-01], the IC50 in assay [1] (setting [3]) is 7.6 µM; in assay [2] (setting [4]), 1.82 µM; at recombinant 5-LOX, 6.83 µM.

On to `c1ccc2c(c1)[nH]c1c(OCCn3cncn3)c3c(cc12)[nH]c1ccccc13` [SS20308-0059-01, 6-(2-(1H-1,2,4-triazol-1-yl)ethoxy)-5,11-dihydroindolo[3,2-b]carbazole], for which the IC50 was 0.03 µM and 0.02 µM in assay [1] (IC50 (μM) values for in vitro lipoxygenase inhibition, 12-LOX); 0.03 µM and 0.02 µM in assay [2] (setting [5]); 0.04 µM and 0.03 µM on recombinant 5-LOX.

Regarding `Fc1ccc2[nH]c3cc(-c4ccccc4)c(NCCn4cncn4)cc3c2c1` [SS20308-0094-01, N-(2-(1H-1,2,4-triazol-1-yl)ethyl)-6-fluoro-2-phenyl-9H-carbazol-3-amine], the IC50 in assay [1] (setting [3]) was 30 nM and 40 nM (3×).

`c1ccc(CN(CCCn2cncn2)c2ccc3[nH]c4ccccc4c3c2)cc1` [SS20308-0097-01, N-(3-(1H-1,2,4-triazol-1-yl)propyl)-N-benzyl-9H-carbazol-3-amine]: the IC50 at recombinant 5-LOX was 33 µM and > 1 µM.

As for `CN(C)CCOc1c2[nH]c3ccccc3c2c(F)c2[nH]c3ccccc3c12` [SS20308-0102-01, 2-(12-fluoro-5,11-dihydroindolo[3,2-b]carbazol-6-yloxy)-N,N-dimethylethanamine], the IC50 in assay [1] (setting [3]) was 0.05 µM and 0.11 µM; in assay [2] (setting [5]), 0.02 µM and 0.04 µM.

Turning to `CN(C)CCCc1c2[nH]c3ccccc3c2cc2[nH]c3ccccc3c12` [SS20308-0104-01, 3-(5,11-dihydroindolo[3,2-b]carbazol-6-yl)-N,N-dimethylpropan-1-amine], the IC50 in assay [2] (setting [5]) came out at 0.02 µM.

As to `c1ccc(N(CCn2cncn2)c2ccc3[nH]c4ccccc4c3c2)cc1` [SS20308-0108-01, N-(2-(1H-1,2,4-triazol-1-yl)ethyl)-N-phenyl-9H-carbazol-3-amine], the IC50 in assay [2] (setting [5]) is 1 µM and 0.41 µM and 0.86 µM; on recombinant 5-LOX it was 0.55 µM and 0.26 µM and 0.35 µM.

Turning to `CC(C)CCOc1cc2c3ccccc3[nH]c2c2[nH]c3ccccc3c12` [SS20308-0127-01, 5-(isopentyloxy)-11,12-dihydroindolo[2,3-a]carbazole], the IC50 is 0.09 µM and 0.04 µM and 0.14 µM in assay [1] (setting [3]); 0.12 µM and 0.08 µM and 0.17 µM in assay [2] (setting [4]).

For the molecule `c1ccc(-c2cc3c(cc2NCCn2cncn2)Nc2ccccc2CC3)cc1` [SS20308-0152-01, N-(2-(1H-1,2,4-triazol-1-yl)ethyl)-2-phenyl-10,11-dihydro-5H-dibenzo[b,f]azepin-3-amine], the IC50 is 0.05 µM and 0.08 µM in assay [1] (setting [3]); 0.08 µM and 0.2 µM in assay [2] (setting [4]).

As to `CN(C)CCCc1c2[nH]c3ccc(F)cc3c2c(F)c2[nH]c3ccc(F)cc3c12` [SS20308-0163-01, N,N-dimethyl-3-(2,8,12-trifluoro-5,11-dihydroindolo[3,2-b]carbazol-6-yl)propan-1-amine], the IC50 on recombinant 5-LOX was 20 nM (2×) and 40 nM and 50 nM and 10 nM.

Take `CN(C)CCc1cc(Nc2ccc(Cl)cc2)cc2c1[nH]c1ccccc12` [SS20308-0257-01, N-(4-chlorophenyl)-1-(2-(dimethylamino)ethyl)-9H-carbazol-3-amine]: on recombinant 5-LOX, the IC50 is 0.01 µM and 0.04 µM.

As a reminder, the IC50 is the concentration that gives 50% inhibition.
